Test results published in US20240335548A1, “MACROMOLECULES” (Starpharma Pty Ltd, priority 2011, published 2024).

Tests used:
[1] = system: MDA-MB-231 tumour xenografts; experiment: MDA-MB-231 mouse xenograft breast cancer model, SPL8996, SPL9005 and SPL9006 study
Protocol: (§2) References to amounts dosed in mg/kg for the dendrimeric compounds are to the amounts of cabazitaxel that may theoretically be released by the dendrimers.
(§3) Each of the dendrimers was pre-weighed in glass vials and stored at 20° C. until use, and dissolved in saline immediately prior to dosing. Cabazitaxel was purchased from a commercial supplier.
(§4) Female Balb/c nude mice (age 7 weeks) were inoculated subcutaneously on the flank with 3.5×10^6 MDA-MB-231 cells in PBS:Matrigel (1:1). Mice were weighed and tumours measured twice weekly using electronic callipers. Tumour volume (mm^3) was calculated as length (mm)/2×width (mm)^2.
Mice received a small dish containing a food supplement (mixed with food dust) daily. The experiment was ended on day 150 or earlier if an ethical endpoint was met.

MDA-MB-231 tumours = experiment: Xenograft MDA-MB-231 efficacy study; assay type: in vivo, female Balb/c nude mice
ES2 (Ovarian) = experiment: Cell growth inhibition SRB assay; assay type: cell-based; settings: ES2; 72 hours; equivalent drug loading; average of duplicate
Protocol: (§1) All solutions were prepared in saline (except docetaxel which was made in ethanol). All solutions were stored at −20° C. All values were based on the equivalent drug loading.

MDA-MB-231 (Breast) = experiment: Cell growth inhibition SRB assay; assay type: cell-based; settings: Homo sapiens; MDA-MB-231; 72 hours; equivalent drug loading; average of duplicate
Protocol: as §1

H460 (Lung) = experiment: Cell growth inhibition SRB assay; assay type: cell-based; settings: Homo sapiens, NCI-H460; H460; 72 hours; equivalent drug loading; average of duplicate
Protocol: as §1

A549 (Lung) = experiment: Cell growth inhibition SRB assay; assay type: cell-based; settings: Homo sapiens; A549; 72 hours; equivalent drug loading; average of duplicate
Protocol: as §1

A2058 (Melanoma) = experiment: Cell growth inhibition SRB assay; assay type: cell-based; settings: Homo sapiens; A2058; 72 hours; equivalent drug loading; average of duplicate
Protocol: as §1

PC-3 (Prostate) = experiment: Cell growth inhibition SRB assay; assay type: cell-based; settings: PC-3; 72 hours; equivalent drug loading; average of duplicate
Protocol: as §1

MCAS (Ovarian) = experiment: Cell growth inhibition SRB assay; assay type: cell-based; settings: MCAS; 72 hours; equivalent drug loading; average of duplicate
Protocol: as §1

HT29 (Colon) = experiment: Cell growth inhibition SRB assay; assay type: cell-based; settings: Homo sapiens, HT-29; HT29; 72 hours; equivalent drug loading; average of duplicate
Protocol: as §1

HCT116 (Colon) = experiment: Cell growth inhibition SRB assay; assay type: cell-based; settings: Homo sapiens, HCT-116; HCT116; 72 hours; equivalent drug loading; average of duplicate
Protocol: as §1

DU145 (Prostate) = experiment: Cell growth inhibition SRB assay; assay type: cell-based; settings: Homo sapiens, DU-145; DU145; 72 hours; equivalent drug loading; average of duplicate
Protocol: as §1

[2] = free drug, footnote of Table 1; cited from earlier work
[3] = day 16, one day after final dose
Protocol: The 20 mice were randomised into 5 groups of four mice (mean tumour volume ˜90 mm^3). Animals were eye bled in the morning for baseline blood cell counts and then drug dosing commenced later that day (day 1). […] A second eye bleed was performed on day 11 (Table 7 A-C). Mice were killed one day following the final drug dose (day 16).

[4] = Maximum tolerated dose (MTD) study; assay type: in vivo, female Balb/c mice; settings: intravenous once weekly for 3 weeks (day 1, 8 and 15)
Protocol: Groups of female Balb/c mice were administered an intravenous injection of dendrimer (0.1 ml/10 g body weight) or docetaxel (0.05 ml/10 g body weight) once weekly for 3 weeks (day 1, 8 and 15). Mice were weighed daily and watched for signs of toxicity. Animals were monitored for up to 10 days following the final drug dose. Any mice exceeding ethical endpoints (≥20% body weight loss, poor general health) were immediately sacrificed and observations were noted. […] More than twice the dose of docetaxel could be safely administered using drug dendrimer construct compared to docetaxel alone.

[5] = Pharmacokinetic analysis, plasma half-life after IV administration; settings: rat, plasma, iv
Protocol: The plasma half-lives of tritium labelled docetaxel and the construct from Experiment 8 (c) (prepared using tritium labelled docetaxel) after IV administration into rats were determined (Kaminskas, L. M., Boyd, B. J., Karellas, P., Krippner, G. Y., Lessene, R., Kelly, B and Porter, C. J. H. “The Impact of Molecular Weight and PEG Chain Length on the Systemic Pharmacokinetics of PEGylated Poly-L-Lysine Dendrimers” Molecular Pharm. 2008, 5, 449-463).

[6] = free cabazitaxel, triphasic PK model; cited from earlier work
[7] = system: MDA-MB-231 tumour xenografts; experiment: MDA-MB-231 mouse xenograft breast cancer model, SPL9048 study
Protocol: as §2, §3, §4
Mice received a small dish containing a food supplement (mixed with food dust) daily. The experiment was ended on day 113 or earlier if an ethical endpoint was met.

[8] = Toxicity studies in rats (neutropenia, hematology, microscopic changes); settings: 2.5 mg/kg
Source text: References to amounts dosed in mg/kg for the dendrimeric compound are to the amounts of cabazitaxel that may theoretically be released by the dendrimer.

**Q.** For “N3-PEG24-CO(NPN)[Lys]32[α-TDA-Cabazitaxel]32†[ε-PEG˜1100]32‡ [SPL8996]”, which “tumour regrowth at the conclusion of the study on day 150” value ([1]; 28 mg/kg) is on record?
**A.** one tumour in the SPL-8996 group which began to regrow by day 77

**Q.** Which “Mean tumour Volumne mm^3 (sd)” value (MDA-MB-231 tumours; Day 1, i.v. day 1, 8, 15, docetaxel 15 mg/kg, Exp 3 (b) 20 mg/kg, Exp 8 (c) […] mg/kg) does the source give for `CC(=O)O[C@@]12CO[C@@H]1C[C@H](O)[C@@]1(C)C(=O)[C@H](O)C3=C(C)[C@@H](OC(=O)[C@H](O)[C@@H](NC(=O)OC(C)(C)C)c4ccccc4)C[C@@](O)([C@@H](OC(=O)c4ccccc4)[C@H]21)C3(C)C` [Docetaxel, reference compound] here?
**A.** 111.94 (6.41), mm^3

**Q.** And the “Mean tumour Volumne mm^3 (sd)” value (MDA-MB-231 tumours; Day 9, same doses)?
**A.** 135.57 (18.85), mm^3

**Q.** And the “Mean tumour Volumne mm^3 (sd)” value (MDA-MB-231 tumours; Day 19, same doses)?
**A.** 49.92 (11.61), mm^3

**Q.** And the “Mean tumour Volumne mm^3 (sd)” value (MDA-MB-231 tumours; Day 29, same doses)?
**A.** 18.81 (2.09), mm^3

**Q.** And the “Mean tumour Volumne mm^3 (sd)” value (MDA-MB-231 tumours; Day 40, same doses)?
**A.** 10.75 (1.95), mm^3

**Q.** What about the “Mean tumour Volumne mm^3 (sd)” value (MDA-MB-231 tumours; Day 61, same doses) of the same compound?
**A.** 95.94 (33.08), mm^3

**Q.** And the “Mean tumour Volumne mm^3 (sd)” value (MDA-MB-231 tumours; Day 81, same doses)?
**A.** 478.67 (169.27), mm^3

**Q.** And the “Mean tumour Volumne mm^3 (sd)” value (MDA-MB-231 tumours; Day 100, same doses)?
**A.** 974.83 (302.59), mm^3

**Q.** What about the GI50 (ES2 (Ovarian)) of the same compound?
**A.** 5 nM

**Q.** What about the GI50 (MDA-MB-231 (Breast)) of the same compound?
**A.** 3.5 nM

**Q.** And the GI50 (H460 (Lung))?
**A.** 1.5 nM

**Q.** What about the GI50 (A549 (Lung)) of the same compound?
**A.** 3.5 nM

**Q.** What about the GI50 (A2058 (Melanoma)) of the same compound?
**A.** 2 nM

**Q.** And the GI50 (PC-3 (Prostate))?
**A.** 2.5 nM

**Q.** What about the GI50 (MCAS (Ovarian)) of the same compound?
**A.** 7 nM

**Q.** And the GI50 (HT29 (Colon))?
**A.** 1.5 nM

**Q.** And the GI50 (HCT116 (Colon))?
**A.** 0.7 nM

**Q.** And the GI50 (DU145 (Prostate))?
**A.** 2.5 nM

**Q.** What about the “solubility of the drug in water” value [2] of the same compound?
**A.** The solubility of docetaxel and in water is 5 μg/mL

**Q.** What about the “Mean Tumour Weights (g) (sd)” value [3] of the same compound?
**A.** 0.048 g

**Q.** What about the Tolerated dose [4] of the same compound?
**A.** 15 mg/kg docetaxel equivalents

**Q.** What about the half-life [5] of the same compound?
**A.** < 1 h

**Q.** With `CO[C@H]1C(=O)[C@]2(C)[C@@H](OC)C[C@H]3OC[C@@]3(OC(C)=O)[C@H]2[C@H](OC(=O)c2ccccc2)[C@]2(O)C[C@H](OC(=O)[C@H](O)[C@@H](NC(=O)OC(C)(C)C)c3ccccc3)C(C)=C1C2(C)C` [cabazitaxel, reference compound] as the compound, how does the “resumption of tumour growth by day” value ([1]; cabazitaxel 10 mg/kg, days 1, 8 and 22) read?
**A.** ≤ 60 days

**Q.** What about the initial-phase half-life [6] of the same compound?
**A.** 4 min

**Q.** What about the intermediate-phase half-life [6] of the same compound?
**A.** 2 h

**Q.** What about the terminal-phase half-life [6] of the same compound?
**A.** 95 h

**Q.** What about the “tumours reaching an ethical tumour volume endpoint by day 98” value ([7]; cabazitaxel 9 mg/kg) of the same compound?
**A.** 9 of 10

**Q.** What about the “tumour regrowth evident by day” value ([7]; cabazitaxel 9 mg/kg, days 1, 8 and 15) of the same compound?
**A.** ≤ 43 days

**Q.** Which results are given for “BHALys[Lys]32[α-DGA-Cabazitaxel]32†[ε-PEG˜2100]32‡ [SPL9048]”?
**A.** toxicity compared to Jevtana®/cabazitaxel [8]: Reduced toxicity; antitumour efficacy (tumour response) ([7]; FIG. 1, i.v. days 1, 8 and 15, SPL-9048 9 and 10 mg/kg): complete tumour regression; tolerability ([7]; FIG. 2, body weight): overall well tolerated; survival compared with cabazitaxel ([7]; both doses (9 and 10 mg/kg)): significantly extended survival beyond that of cabazitaxel
